Assay results reported in PubChem BioAssay (NCI).
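GI50 = concentration required for 50% inhibition of growth. TGI: concentration producing complete growth inhibition.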

Assays:
Assay in all cases: growth of human tumour cells (NCI), 384-well format; in the data active = GI50 below about 0.43 µM; inactive = the rest
MALME-3M melanoma = system: MALME-3M melanoma
MDA-MB-231 breast = system: MDA-MB-231 breast
NCI-H460 NSCLC = system: NCI-H460 NSCLC
HCT-116 colon = system: HCT-116 colon
U251 glioblastoma = system: U251 glioblastoma
K-562 leukemia = system: K-562 leukemia
KM12 colon = system: KM12 colon
NCI-H23 lung = system: NCI-H23 lung
MDA-MB-468 breast = system: MDA-MB-468 breast
HL-60(TB) leukemia = system: HL-60(TB) leukemia
UO-31 renal = system: UO-31 renal
SF-295 CNS = system: SF-295 CNS
BT-549 breast = system: BT-549 breast
SK-OV-3 ovarian = system: SK-OV-3 ovarian
MDA-MB-435 melanoma = system: MDA-MB-435 melanoma
ACHN renal = system: ACHN renal
NCI-H322M lung = system: NCI-H322M lung
NCI/ADR-RES ovarian = system: NCI/ADR-RES ovarian
PC-3 prostate = system: PC-3 prostate
OVCAR-3 ovarian = system: OVCAR-3 ovarian
NCI-H522 lung = system: NCI-H522 lung
EKVX NSCLC = system: EKVX NSCLC
RXF 393 renal = system: RXF 393 renal
SW-620 colon = system: SW-620 colon
HT29 colon = system: HT29 colon
SF-539 CNS = system: SF-539 CNS
SK-MEL-28 melanoma = system: SK-MEL-28 melanoma
MOLT-4 leukemia = system: MOLT-4 leukemia
NCI-H226 lung = system: NCI-H226 lung
HS 578T breast = system: HS 578T breast
OVCAR-8 ovarian = system: OVCAR-8 ovarian
HCC-2998 colon = system: HCC-2998 colon
M14 melanoma = system: M14 melanoma
TK-10 renal = system: TK-10 renal
CCRF-CEM leukemia = system: CCRF-CEM leukemia
A549 NSCLC = system: A549 NSCLC
IGROV1 ovarian = system: IGROV1 ovarian
SK-MEL-5 melanoma = system: SK-MEL-5 melanoma
SK-MEL-2 melanoma = system: SK-MEL-2 melanoma
HOP-92 NSCLC = system: HOP-92 NSCLC
SN12C renal = system: SN12C renal
SNB-19 CNS = system: SNB-19 CNS
HCT-15 colon = system: HCT-15 colon
SF-268 CNS = system: SF-268 CNS
SNB-75 CNS = system: SNB-75 CNS
RPMI-8226 leukemia = system: RPMI-8226 leukemia
LOX IMVI melanoma = system: LOX IMVI melanoma
DU-145 prostate = system: DU-145 prostate
COLO 205 colon = system: COLO 205 colon
786-0 renal = system: 786-0 renal
HOP-62 NSCLC = system: HOP-62 NSCLC
OVCAR-5 ovarian = system: OVCAR-5 ovarian
CAKI-1 renal = system: CAKI-1 renal
T-47D breast = system: T-47D breast
UACC-257 melanoma = system: UACC-257 melanoma
UACC-62 melanoma = system: UACC-62 melanoma
OVCAR-4 ovarian = system: OVCAR-4 ovarian
MCF7 breast = system: MCF7 breast
A498 renal = system: A498 renal

Cc1ccccc1C(C(=O)NC1CCCCC1)N(C(=O)CNc1ncccc1F)c1cccc(F)c1 (stereo not drawn)
> 100 µM: TGI (MALME-3M melanoma) | TGI (MDA-MB-231 breast) | TGI (NCI-H460 NSCLC) | TGI (HCT-116 colon) | TGI (U251 glioblastoma) | TGI (K-562 leukemia) | TGI (KM12 colon) | TGI (NCI-H23 lung) | TGI (MDA-MB-468 breast) | TGI (HL-60(TB) leukemia) | TGI (UO-31 renal) | TGI (SF-295 CNS) | TGI (BT-549 breast) | TGI (SK-OV-3 ovarian) | TGI (MDA-MB-435 melanoma) | TGI (ACHN renal) | TGI (NCI-H322M lung) | TGI (NCI/ADR-RES ovarian) | TGI (PC-3 prostate) | TGI (OVCAR-3 ovarian) | TGI (NCI-H522 lung) | TGI (EKVX NSCLC) | TGI (RXF 393 renal) | TGI (SW-620 colon) | TGI (HT29 colon) | TGI (SF-539 CNS) | TGI (SK-MEL-28 melanoma) | TGI (MOLT-4 leukemia) | TGI (NCI-H226 lung) | TGI (HS 578T breast) | TGI (OVCAR-8 ovarian) | TGI (HCC-2998 colon) | TGI (M14 melanoma) | TGI (TK-10 renal) | TGI (CCRF-CEM leukemia) | TGI (A549 NSCLC) | TGI (IGROV1 ovarian) | TGI (SK-MEL-5 melanoma) | TGI (SK-MEL-2 melanoma) | TGI (HOP-92 NSCLC) | TGI (SN12C renal) | TGI (SNB-19 CNS) | TGI (HCT-15 colon) | TGI (SF-268 CNS) | TGI (SNB-75 CNS) | TGI (RPMI-8226 leukemia) | TGI (LOX IMVI melanoma) | TGI (DU-145 prostate) | TGI (COLO 205 colon) | TGI (786-0 renal) | TGI (HOP-62 NSCLC) | TGI (OVCAR-5 ovarian) | TGI (CAKI-1 renal) | TGI (T-47D breast) | TGI (UACC-257 melanoma) | TGI (UACC-62 melanoma) | TGI (OVCAR-4 ovarian) | TGI (MCF7 breast) | TGI (A498 renal)
inactive: GI50 (MALME-3M melanoma) > 100 µM | GI50 (MDA-MB-231 breast) > 100 µM | GI50 (NCI-H460 NSCLC) > 100 µM | GI50 (HCT-116 colon) > 100 µM | GI50 (U251 glioblastoma) > 100 µM | GI50 (K-562 leukemia) > 100 µM | GI50 (KM12 colon) > 100 µM | GI50 (NCI-H23 lung) > 100 µM | GI50 (MDA-MB-468 breast) > 100 µM | GI50 (HL-60(TB) leukemia) > 100 µM | GI50 (UO-31 renal) > 100 µM | GI50 (SF-295 CNS) > 100 µM | GI50 (BT-549 breast) > 100 µM | GI50 (SK-OV-3 ovarian) > 100 µM | GI50 (MDA-MB-435 melanoma) > 100 µM | GI50 (ACHN renal) > 100 µM | GI50 (NCI-H322M lung) > 100 µM | GI50 (NCI/ADR-RES ovarian) > 100 µM | GI50 (PC-3 prostate) > 100 µM | GI50 (OVCAR-3 ovarian) > 100 µM | GI50 (NCI-H522 lung) > 100 µM | GI50 (EKVX NSCLC) > 100 µM | GI50 (RXF 393 renal) > 100 µM | GI50 (SW-620 colon) > 100 µM | GI50 (HT29 colon) > 100 µM | GI50 (SF-539 CNS) > 100 µM | GI50 (SK-MEL-28 melanoma) > 100 µM | GI50 (MOLT-4 leukemia) > 100 µM | GI50 (NCI-H226 lung) > 100 µM | GI50 (HS 578T breast) > 100 µM | GI50 (OVCAR-8 ovarian) > 100 µM | GI50 (HCC-2998 colon) > 100 µM | GI50 (M14 melanoma) > 100 µM | GI50 (TK-10 renal) > 100 µM | GI50 (CCRF-CEM leukemia) > 100 µM | GI50 (A549 NSCLC) > 100 µM | GI50 (IGROV1 ovarian) > 100 µM | GI50 (SK-MEL-5 melanoma) > 100 µM | GI50 (SK-MEL-2 melanoma) > 100 µM | GI50 (HOP-92 NSCLC) > 100 µM | GI50 (SN12C renal) > 100 µM | GI50 (SNB-19 CNS) > 100 µM | GI50 (HCT-15 colon) > 100 µM | GI50 (SF-268 CNS) > 100 µM | GI50 (SNB-75 CNS) > 100 µM | GI50 (RPMI-8226 leukemia) > 100 µM | GI50 (LOX IMVI melanoma) > 100 µM | GI50 (DU-145 prostate) > 100 µM | GI50 (COLO 205 colon) > 100 µM | GI50 ([…]-0 renal) > 100 µM | GI50 (HOP-62 NSCLC) > 100 µM | GI50 (OVCAR-5 ovarian) > 100 µM | GI50 (CAKI-1 renal) > 100 µM | GI50 (T-47D breast) > 100 µM | GI50 (UACC-257 melanoma) > 100 µM | GI50 (UACC-62 melanoma) > 100 µM | GI50 (OVCAR-4 ovarian) > 100 µM | GI50 (MCF7 breast) > 100 µM | GI50 (A498 renal) > 100 µM
